Assay results: patent publication US9957251B2 (Takeda Pharmaceutical Company Limited, priority 2014, dated 2018)

Tests used:
CDK8/CycC = biological target: T1, CDK8/CycC (Homo sapiens, UniProt P49336); assay: CDK8 inhibitory activity (TR-FRET, Kinase Tracer-236 displacement); type: binding; conditions: 1 μM of the test compound; read-out: Percent inhibition of CDK8 activity (%)
T1 construct: purchased Carna Biosciences
Method: (§1) The compound of the present invention was evaluated for its CDK8 inhibitory activity and CDK19 inhibitory activity by the following method. […] The primary diluted solution was dispensed in the amount of 2 μL/well to a 384-well plate, and then, a mixed solution of Eu^3+ Cryptate conjugated mouse monoclonal antibody anti-glutathione S-transferase (Cisbio) diluted 267-fold with an assay buffer and 60 nM Kinase Tracer-236 (Life technologies) was added thereto at 2 μL/well. After the addition, each kinase solution (84 ng/mL CDK8/CycC (Carna Biosciences) diluted with an assay buffer used for CDK8 inhibitory activity measurement, and 87 ng/mL CDC2L6/CycC (Carna Biosciences) diluted with an assay buffer used for CDK19 inhibitory activity measurement) was further added thereto at 2 μL/well. After the addition, the plate was left standing at room temperature for 1 hour, and then, the fluorescence intensity (excitation wavelength 320 nm, fluorescence wavelength 615 nm, 665 nm, delay time 50 μsec) was measured using an EnVision plate reader (PerkinElmer).

CDK19 (CDC2L6/CycC) = biological target: T2, CDK19 (CDC2L6/CycC) (Homo sapiens, UniProt Q9BWU1); assay: CDK19 inhibitory activity (TR-FRET, Kinase Tracer-236 displacement); type: binding; conditions: 1 μM of the test compound; read-out: Percent inhibition of CDK19 activity (%)
T2 construct: purchased Carna Biosciences
T2 sequence (Q9BWU1 whole entry): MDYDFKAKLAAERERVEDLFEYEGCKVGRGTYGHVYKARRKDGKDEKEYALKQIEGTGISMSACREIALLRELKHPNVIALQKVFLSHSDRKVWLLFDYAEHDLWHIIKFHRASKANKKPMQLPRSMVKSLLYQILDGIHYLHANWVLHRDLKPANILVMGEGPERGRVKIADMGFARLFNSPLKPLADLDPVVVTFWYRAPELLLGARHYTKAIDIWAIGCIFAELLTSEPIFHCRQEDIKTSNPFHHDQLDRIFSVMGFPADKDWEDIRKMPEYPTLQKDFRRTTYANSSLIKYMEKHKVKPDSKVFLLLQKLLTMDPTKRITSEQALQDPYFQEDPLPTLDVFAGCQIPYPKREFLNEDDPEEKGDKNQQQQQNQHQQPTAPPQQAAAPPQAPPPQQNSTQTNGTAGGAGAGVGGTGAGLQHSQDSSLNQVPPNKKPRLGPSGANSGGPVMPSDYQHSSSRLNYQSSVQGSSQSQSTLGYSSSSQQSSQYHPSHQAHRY
T2 sequence (P24863 whole entry partner): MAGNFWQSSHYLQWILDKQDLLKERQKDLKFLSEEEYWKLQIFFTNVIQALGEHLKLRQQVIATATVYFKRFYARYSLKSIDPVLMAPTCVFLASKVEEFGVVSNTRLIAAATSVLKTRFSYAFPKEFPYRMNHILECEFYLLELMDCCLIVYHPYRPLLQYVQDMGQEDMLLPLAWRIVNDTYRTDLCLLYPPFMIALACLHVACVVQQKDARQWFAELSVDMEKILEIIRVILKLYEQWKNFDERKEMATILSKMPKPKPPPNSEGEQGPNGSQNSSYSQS
Method: as §1

[1] = tested on: human multiple myeloma RPMI8226 cells; assay: Inhibitory activity against human multiple myeloma RPMI8226 cell growth (CellTiter-Glo); type: cell-based; conditions: Homo sapiens, RPMI-8226, 192 h, 1 μM of the test compound, cultured for 8 days; read-out: Percent inhibition of RPMI8226 cell growth (%)
Method: The compound of the present invention was evaluated for its inhibitory activity against human multiple myeloma RPMI8226 cell growth by the following method.
A suspension of human multiple myeloma RPMI8226 cells (purchased from the Health Protection Agency) was inoculated at 40 μL (300 cells/well) to a 384-well plate and cultured at 37° C. for 1 day in a 5% CO2 incubator. After the culture, each test compound solution was added thereto at a test concentration of 1 μM using TECAN D300, and the cells were further cultured for 8 days. After the culture, CellTiter-Glo™ Luminescent Cell Viability Assay reagent (Promega) was added at 40 μL/well to a 384-well plate, and the amount of luminescence was measured using a luminometer. Inhibitory activity against human multiple myeloma RPMI8226 cell growth (percent inhibition (%)) of the test compound was calculated according to the following formula, which is based on the hypothesis that the amount of residual ATP reflects the number of cells. In this formula, 100% control represents the amount of luminescence from a well with only 0.1% DMSO added. Percent inhibition (%)=(1−(amount of luminescence of the test compound)÷(100% control))×100

T1 sequence (P49336 whole entry): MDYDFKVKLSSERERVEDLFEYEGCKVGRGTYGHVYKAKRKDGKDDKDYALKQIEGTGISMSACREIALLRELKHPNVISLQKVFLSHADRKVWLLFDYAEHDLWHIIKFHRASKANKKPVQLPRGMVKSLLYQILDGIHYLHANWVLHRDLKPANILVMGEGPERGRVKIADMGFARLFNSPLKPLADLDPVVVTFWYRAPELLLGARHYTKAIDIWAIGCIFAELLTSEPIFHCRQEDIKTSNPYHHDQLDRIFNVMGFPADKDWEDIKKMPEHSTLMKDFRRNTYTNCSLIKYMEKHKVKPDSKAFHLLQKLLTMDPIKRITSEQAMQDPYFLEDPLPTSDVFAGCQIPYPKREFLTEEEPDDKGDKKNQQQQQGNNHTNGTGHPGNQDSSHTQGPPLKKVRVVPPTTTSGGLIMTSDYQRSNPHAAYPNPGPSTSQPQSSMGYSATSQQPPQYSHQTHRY
T1 sequence (P24863 whole entry partner): as the sequence (P24863 whole entry partner) above

Row | inhibition at 1 µM (CDK8/CycC) | inhibition at 1 µM (CDK19 (CDC2L6/CycC)) | SMILES | inhibition at 1 µM [1]
1 | 105% | 99% | Cn1cc(-c2ccncc2/C=C/C(=O)Nc2ccc(N3CC(F)(F)C3)cc2)cn1 [Example 363, (2E)-N-(4-(3,3-difluoroazetidin-1-yl)phenyl)-3-(4-(1-methyl-1H-pyrazol-4-yl)pyridin-3-yl)acrylamide] | 50%
2 | 99% | 97% | Cn1cc(-c2ccncc2/C=C/C(=O)Nc2ccc(CN3CCOCC3)c(F)c2)cn1 [Example 249, (2E)-N-(3-fluoro-4-(morpholin-4-ylmethyl)phenyl)-3-(4-(1-methyl-1H-pyrazol-4-yl)pyridin-3-yl)acrylamide] | 62%
3 | 96% | 95% | CCN1CCc2cc(NC(=O)/C=C/c3cnccc3-c3cnn(C)c3)ccc2C1 [Example 256, (2E)-N-(2-ethyl-1,2,3,4-tetrahydroisoquinolin-6-yl)-3-(4-(1-methyl-1H-pyrazol-4-yl)pyridin-3-yl)acrylamide] | 58%
4 | 98% | 100% | O=C(/C=C/c1cnccc1-c1cnn(C(F)F)c1)Nc1ccc(CN2CCOCC2)cc1 [Example 98, (2E)-3-(4-(1-(Difluoromethyl)-1H-pyrazol-4-yl)pyridin-3-yl)-N-(4-(morpholin-4-ylmethyl)phenyl)acrylamide] | 53%
5 | 99% | 99% | Cn1cc(-c2ccncc2/C=C/C(=O)Nc2ccc(CN3CC(F)(F)C3)cc2)cn1 [Example 69, (2E)-N-(4-((3,3-difluoroazetidin-1-yl)methyl)phenyl)-3-(4-(1-methyl-1H-pyrazol-4-yl)pyridin-3-yl)acrylamide] | 48%
6 | 99% | 95% | CCN1CCc2ccc(NC(=O)/C=C/c3cnccc3-c3cnn(C)c3)cc2C1 [Example 257, (2E)-N-(2-ethyl-1,2,3,4-tetrahydroisoquinolin-7-yl)-3-(4-(1-methyl-1H-pyrazol-4-yl)pyridin-3-yl)acrylamide] | 56%
7 | 94% | 97% | O=C(/C=C/c1cnccc1-c1cnn(CC2CC2)c1)Nc1ccc(CCN2CCOCC2)cc1 [Example 108, (2E)-3-(4-(1-(cyclopropylmethyl)-1H-pyrazol-4-yl)pyridin-3-yl)-N-(4-(2-(morpholin-4-yl)ethyl)phenyl)acrylamide] | 58%
8 | 100% | 99% | O=C(/C=C/c1cnccc1-c1cn[nH]c1)Nc1ccc(CN2CCOCC2)cc1 [Example 33, (2E)-N-(4-(morpholin-4-ylmethyl)phenyl)-3-(4-(1H-pyrazol-4-yl)pyridin-3-yl)acrylamide] | 61%
9 | 101% | 98% | O=C(/C=C/c1cnccc1-c1cnn(Cc2ccccn2)c1)Nc1ccc(CN2CCOCC2)cc1 [Example 47, (2E)-N-(4-(morpholin-4-ylmethyl)phenyl)-3-(4-(1-(pyridin-2-ylmethyl)-1H-pyrazol-4-yl)pyridin-3-yl)acrylamide] | 57%

Continued, compound first:

Row | SMILES | inhibition at 1 µM (CDK8/CycC) | inhibition at 1 µM (CDK19 (CDC2L6/CycC)) | inhibition at 1 µM [1]
10 | Cn1cc(-c2ccncc2/C=C/C(=O)Nc2ccc(CC(C)(C)O)cc2)cn1 [Example 123, (2E)-N-(4-(2-hydroxy-2-methylpropyl)phenyl)-3-(4-(1-methyl-1H-pyrazol-4-yl)pyridin-3-yl)acrylamide] | 99% | 101% | 62%
11 | Cn1cnc2ccc(-c3ccncc3/C=C/C(=O)Nc3ccc4c(ccn4CC(F)(F)F)c3)cc21 [Example 298, (2E)-3-(4-(1-methyl-1H-benzimidazol-6-yl)pyridin-3-yl)-N-(1-(2,2,2-trifluoroethyl)-1H-indol-5-yl)acrylamide] | 85% | 84% | 63%
12 | COC1CN(Cc2ccc(NC(=O)/C=C/c3cnccc3-c3cnn(C4CC4)c3)cc2)C1 [Example 321, (2E)-3-(4-(1-cyclopropyl-1H-pyrazol-4-yl)pyridin-3-yl)-N-(4-((3-methoxyazetidin-1-yl)methyl)phenyl)acrylamide] | 101% | 99% | 59%
13 | Cn1cc(-c2ccncc2/C=C/C(=O)Nc2cccc(-c3cccnc3)c2)cn1 [Example 182, (2E)-3-(4-(1-methyl-1H-pyrazol-4-yl)pyridin-3-yl)-N-(3-(pyridin-3-yl)phenyl)acrylamide] | 84% | 78% | 58%
14 | O=C(/C=C/c1cnccc1-c1cnn(C2CC2)c1)Nc1ccc(C2CC2)cc1 [Example 290] | 95% | 89% | 53%
15 | O=C(/C=C/c1cnccc1-c1cnn(C2CC2)c1)Nc1ccc2c(c1)CN(CC(F)(F)CO)C2 [Example 340, (2E)-3-(4-(1-cyclopropyl-1H-pyrazol-4-yl)pyridin-3-yl)-N-(2-(2,2-difluoro-3-hydroxypropyl)-2,3-dihydro-1H-isoindol-5-yl)acrylamide] | 102% | 96% | 65%
16 | Cn1cc(-c2ccncc2/C=C/C(=O)Nc2ccc3ccncc3c2)cn1 [Example 156, (2E)-N-(isoquinolin-7-yl)-3-(4-(1-methyl-1H-pyrazol-4-yl)pyridin-3-yl)acrylamide] | 94% | 94% | 55%
17 | O=C(/C=C/c1cnccc1-c1ccc2ncn(CC3CC3)c2c1)Nc1ccc(CN2CCOCC2)cc1 [Example 283, (2E)-3-(4-(1-(Cyclopropylmethyl)-1H-benzimidazol-6-yl)pyridin-3-yl)-N-(4-(morpholin-4-ylmethyl)phenyl)acrylamide] | 95% | 96% | 60%
18 | CC1CN(Cc2ccc(NC(=O)/C=C/c3cnccc3-c3cnn(C4CC4)c3)cc2)C1 [Example 322, (2E)-3-(4-(1-cyclopropyl-1H-pyrazol-4-yl)pyridin-3-yl)-N-(4-((3-methylazetidin-1-yl)methyl)phenyl)acrylamide] | 102% | 97% | 55%
19 | COCc1ccc(NC(=O)/C=C/c2cnccc2-c2cnn(C)c2)cc1 [Example 239, (2E)-N-(4-(methoxymethyl)phenyl)-3-(4-(1-methyl-1H-pyrazol-4-yl)pyridin-3-yl)acrylamide] | 100% | 100% | 65%
20 | Cn1cc(-c2ccncc2/C=C/C(=O)Nc2ccc3cnccc3c2)cn1 [Example 154, (2E)-N-(isoquinolin-6-yl)-3-(4-(1-methyl-1H-pyrazol-4-yl)pyridin-3-yl)acrylamide] | 96% | 99% | 62%
21 | C[C@@H]1CN(Cc2ccc(NC(=O)/C=C/c3cnccc3-c3cnn(C)c3)cc2)C[C@H](C)O1 [Example 53, (2E)-N-(4-(((2R,65)-2,6-dimethylmorpholin-4-yl)methyl)phenyl)-3-(4-(1-methyl-1H-pyrazol-4-yl)pyridin-3-yl)acrylamide] | 101% | 97% | 58%
22 | COc1ccc(-c2ccncc2/C=C/C(=O)Nc2ccc(CN3CCOCC3)cc2)s1 [Example 220, (2E)-3-(4-(5-methoxy-2-thienyl)pyridin-3-yl)-N-(4-(morpholin-4-ylmethyl)phenyl)acrylamide] | 93% | 96% | 58%
23 | O=C(/C=C/c1cnccc1-c1cnn(C2CC2)c1)Nc1ccc2c(ccn2CC(F)(F)F)c1 [Example 266, (2E)-3-(4-(1-Cyclopropyl-1H-pyrazol-4-yl)pyridin-3-yl)-N-(1-(2,2,2-trifluoroethyl)-1H-indol-5-yl)acrylamide] | 99% | 98% | 57%
24 | Cn1cc(-c2ccc(NC(=O)/C=C/c3cnccc3-c3cnn(C4CC4)c3)cc2)cn1 [Example 281, (2E)-3-(4-(1-cyclopropyl-1H-pyrazol-4-yl)pyridin-3-yl)-N-(4-(1-methyl-1H-pyrazol-4-yl)phenyl)acrylamide] | 92% | 97% | 58%
